Reference: BindingDB's records for doi:10.1021/jm9800447 (The George Washington University Medical Center, 1998)

Target: Sigma non-opioid intracellular receptor 1 (Cavia porcellus) (UniProt Q60492)
Experiment: Inhibition of [3H](+)-pentazocine binding to sigma-1 receptor in guinea pig brain membranes

Chain of Sigma non-opioid intracellular receptor 1 (Cavia porcellus) (Q60492 whole entry, looked up): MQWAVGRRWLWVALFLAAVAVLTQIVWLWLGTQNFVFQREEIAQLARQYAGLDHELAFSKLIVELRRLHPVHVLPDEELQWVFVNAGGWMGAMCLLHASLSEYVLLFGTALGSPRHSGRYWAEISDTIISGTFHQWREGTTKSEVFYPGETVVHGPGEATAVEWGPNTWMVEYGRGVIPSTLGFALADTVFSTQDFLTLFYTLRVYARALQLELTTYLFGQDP

Row | Ki [nM] | SMILES
1 | 41.8 | COc1ccc(S(=O)(=O)NCCN2CCCCC2)cc1I [3-Iodo-4-methoxy-N-(2-piperidin-1-yl-ethyl)-benzenesulfonamide]
2 | 10.1 | CCN(CC)CCNS(=O)(=O)c1ccc(Br)cc1 [4-Bromo-N-(2-diethylamino-ethyl)-benzenesulfonamide]
3 | 1.54 | O=S(=O)(NCCN1CCCCC1)c1ccc(Br)cc1 [4-Bromo-N-(2-piperidin-1-yl-ethyl)-benzenesulfonamide]
4 | 6.65 | O=S(=O)(NCCN1CCCC1)c1ccc(Br)cc1 [4-Bromo-N-(2-pyrrolidin-1-yl-ethyl)-benzenesulfonamide]
5 | 0.46 | O=S(=O)(NCCN1CCCCC1)c1ccc(I)cc1 [4-Iodo-N-(2-piperidin-1-yl-ethyl)-benzenesulfonamide]
6 | 4.3 | O=S(=O)(NCCN1CCCC1)c1ccc(I)cc1 [4-Iodo-N-(2-pyrrolidin-1-yl-ethyl)-benzenesulfonamide]
7 | 3.11 | COc1ccc(S(=O)(=O)N(C)CCN2CCCCCC2)cc1I [N-(2-Azepan-1-yl-ethyl)-3-iodo-4-methoxy-N-methyl-benzenesulfonamide]
8 | 0.18 | CN(CCN1CCCCCC1)S(=O)(=O)c1ccc(Br)cc1 [N-(2-Azepan-1-yl-ethyl)-4-bromo-N-methyl-benzenesulfonamide]
9 | 0.63 | O=S(=O)(NCCN1CCCCCC1)c1ccc(Br)cc1 [N-(2-Azepan-1-yl-ethyl)-4-bromo-benzenesulfonamide]
10 | 0.14 | CN(CCN1CCCCCC1)S(=O)(=O)c1ccc(I)cc1 [N-(2-Azepan-1-yl-ethyl)-4-iodo-N-methyl-benzenesulfonamide]
11 | 1.32 | O=S(=O)(NCCN1CCCCCC1)c1ccc(I)cc1 [N-(2-Azepan-1-yl-ethyl)-4-iodo-benzenesulfonamide]
12 | 4.97 | CCN(CC)CCNS(=O)(=O)c1ccc(I)cc1 [N-(2-Diethylamino-ethyl)-4-iodo-benzenesulfonamide]
